Data: paper PMC5547389, “Structure-activity relationships and molecular docking studies of chromene and chromene based azo chromophores: A novel series of potent antimicrobial and anticancer agents” (EXCLI Journal, 2017)
≈ marks a conversion by molar mass, not a printed value.

Columns and labels:
[1] = tested on: Bacillus subtilis (RCMB 010067); assay: MIC by serial dilution method; assay type: cell-based; details: RCMB010067, Gm+ve, read-out: Minimum inhibitory concentration, MIC, B.S
Protocol: (§1) All the newly synthesized compounds described in this report were screened for both antibacterial and antifungal activity via the reported agar diffusion well method (Vanden Berghe and Vlietinck, 1991[62]). The inhibition zones and minimum inhibitory concentrations (MIC) were determined by the serial dilution method (Cappuccino and Sherman, 1999[12]). The antimicrobial activity of the synthesized compounds was tested against a broad panel of microorganisms including two Gram-positive bacteria: Streptococcus pneumoniae (RCMB 010010) and Bacillus subtilis (RCMB 010067), two Gram-negative bacteria: Pseudomonas aeruginosa (RCMB 010043) and Escherichia coli (RCMB 010052), and four fungi: Aspergillus fumigatus (RCMB 02568), Syncephalastrum racemosum (RCMB 05922), Geotricum candidum (RCMB 05097), and Candida albicans (RCMB 05036). Ampicillin, ciprofloxacin, gentamicin and amphotericin B were used as positive control drugs (Atta-ur-Rahman and Thomsen, 2001[7]; Smania et al., 1999[57]). […] While in the case of Gm-ve bacteria, they had weak activity. In addition, certain strains of fungi were sensitive to tested compounds with an IZ range from 12-25 except Candida albicans.

[2] = tested on: Streptococcus pneumoniae (RCMB 010010); assay: MIC by serial dilution method; assay type: cell-based; details: RCMB010010, Gm+ve, read-out: Minimum inhibitory concentration, MIC, S.P
Protocol: as §1

[3] = tested on: Escherichia coli (RCMB 010052); assay: MIC by serial dilution method; assay type: cell-based; details: RCMB010052, Gm-ve, read-out: Minimum inhibitory concentration, MIC, E.C
Protocol: as §1

[4] = tested on: Syncephalastrum racemosum (RCMB 05922); assay: MIC by serial dilution method; assay type: cell-based; details: RCMB05922, fungi, read-out: Minimum inhibitory concentration, MIC, S.R
Protocol: as §1

[5] = tested on: Geotricum candidum (RCMB 05097); assay: MIC by serial dilution method; assay type: cell-based; details: fungi; read-out: Minimum inhibitory concentration, MIC, G.C
Protocol: as §1

[6] = tested on: Aspergillus fumigatus (RCMB 02568); assay: MIC by serial dilution method; assay type: cell-based; details: RCMB02568, fungi, read-out: Minimum inhibitory concentration, MIC, A.F
Protocol: as §1

[7] = tested on: Pseudomonas aeruginosa (RCMB 010043); assay: MIC by serial dilution method; assay type: cell-based; details: RCMB010043, Gm-ve, read-out: Minimum inhibitory concentration, MIC, P.A
Protocol: as §1

[8] = tested on: human breast adenocarcinoma (MCF-7); assay: Cytotoxic screening; assay type: cell-based; details: Homo sapiens, MCF7; read-out: IC50 MCF-7
Protocol: (§2) Human colon carcinoma (HCT-116), human hepatocellular carcinoma (HEPG-2), adenocarcinomic human alveolar basal epithelial cell (A-549), and human breast adenocarcinoma (MCF-7) cell lines were obtained from the American Type Culture Collection (ATCC, Rockville, MD). The cells were grown on RPMI-1640 medium supplemented with 10 % inactivated fetal calf serum and 50 µg/ml gentamycin. The cells were maintained at 37 °C in a humidified atmosphere with 5 % CO2 and were subcultured two to three times a week. Potential cytotoxicity of the compounds was evaluated on tumor cells using the method of Gangadevi and Muthumary (2007[21]) (Klancnik et al., 2010[36]). The cells were grown as monolayers in growth RPMI-1640. The monolayers of 104 cells adhered at the bottom of the wells in a 96-well microtiter plate incubated for 24 h at 37 °C in a humidified incubator with 5 % CO2. The monolayers were then washed with sterile phosphate buffered saline (0.01 M pH 7.2) and simultaneously the cells were treated with 100 µL from different dilutions of tested sample in fresh maintenance medium and incubated at 37 °C. A control of untreated cells was made in the absence of tested sample. Positive controls containing doxorubicin were also tested as a reference drug for comparison. Six wells were used for each concentration of the test sample. Every 24 hours an observation under the inverted microscope was made. The number of the surviving cells was determined by staining the cells with crystal violet (Mosmann, 1983[42]; Gangadevi and Muthumary, 2007[21]) followed by cell lysing using 33 % glacial acetic acid and reading the absorbance at 590 nm using microplate reader (SunRise, TECAN, Inc, USA) after well mixing. The absorbance values from untreated cells were considered as 100 % proliferation. The number of viable cells was determined using microplate reader as previously mentioned before and the percentage of […] was calculated as [1-(ODt/ODc)] x 100 % where ODt is the mean optical density of wells treated with the tested sample and ODc is the mean optical density of untreated cells. The relation between surviving cells and drug concentration was plotted to get the survival curve of each tumor cell line after treatment with the specified compound. The 50 % inhibitory concentration (IC50), the concentration required to cause toxic effects in 50 % of intact cells, was estimated from graphic plots.
(§3) The in vitro cytotoxic activity was performed by MTT assay (Mosmann, 1983[42]; Alley et al., 1988[6]) against three human carcinoma cell lines: Human colon carcinoma (HCT-116), human breast adenocarcinoma (MCF-7), and human hepatocellular carcinoma (HEPG-2).

[9] = tested on: Human colon carcinoma (HCT-116); assay: Cytotoxic screening; assay type: cell-based; details: Homo sapiens, HCT-116; read-out: IC50 HCT-116
Protocol: as §2, §3

[10] = tested on: human hepatocellular carcinoma (HEPG-2); assay: Cytotoxic screening; assay type: cell-based; details: HepG2, read-out: IC50 HepG-2
Protocol: as §2, §3

[11] = tested on: Bacillus subtilis (RCMB 010067); assay: Well diffusion assay (inhibition zone); assay type: cell-based; details: RCMB010067, 5 mg/mL in DMSO, Gm+ve, read-out: Inhibition Zone (IZ) diameter, B.S
Protocol: (§4) The microorganism inoculums were uniformly spread using sterile cotton swabs on a sterile Petri dish malt extract agar (for fungi) and nutrient agar (for bacteria). One hundred cubic millimeters of each sample was added to each well (10 mm-diameter holes were cut in the agar gel, 20 mm apart from one another). The systems were incubated for 24-48 h at 37 °C (for bacteria) and at 28 °C (for fungi). After incubation, the microorganism growth was observed. Inhibition zones of the bacterial and fungal growth were measured in millimeters. Tests were performed in triplicate (Cappuccino and Sherman, 1999[12]; Vanden Berghe and Vlientinck, 1991[62]).
as §1

[12] = tested on: Streptococcus pneumoniae (RCMB 010010); assay: Well diffusion assay (inhibition zone); assay type: cell-based; details: RCMB010010, 5 mg/mL in DMSO, Gm+ve, read-out: Inhibition Zone (IZ) diameter, S.P
Protocol: as §4, §1

[13] = tested on: Escherichia coli (RCMB 010052); assay: Well diffusion assay (inhibition zone); assay type: cell-based; details: RCMB010052, 5 mg/mL in DMSO, Gm-ve, read-out: Inhibition Zone (IZ) diameter, E.C
Protocol: as §4, §1

[14] = tested on: Syncephalastrum racemosum (RCMB 05922); assay: Well diffusion assay (inhibition zone); assay type: cell-based; details: RCMB05922, 5 mg/mL in DMSO, fungi, read-out: Inhibition Zone (IZ) diameter, S.R
Protocol: as §4, §1

[15] = tested on: Geotricum candidum (RCMB 05097); assay: Well diffusion assay (inhibition zone); assay type: cell-based; details: 5 mg/mL in DMSO; fungi; read-out: Inhibition Zone (IZ) diameter, G.C
Protocol: as §4, §1

[16] = tested on: Aspergillus fumigatus (RCMB 02568); assay: Well diffusion assay (inhibition zone); assay type: cell-based; details: RCMB02568, 5 mg/mL in DMSO, fungi, read-out: Inhibition Zone (IZ) diameter, A.F
Protocol: as §4, §1

[17] = tested on: Pseudomonas aeruginosa (RCMB 010043); assay: Well diffusion assay (inhibition zone); assay type: cell-based; details: RCMB010043, 5 mg/mL in DMSO, Gm-ve, read-out: Inhibition Zone (IZ) diameter, P.A
Protocol: as §4, §1

Row | SMILES | MIC [1] [µg/mL] | MIC [2] [µg/mL] | MIC [3] [µg/mL] | MIC [4] [µg/mL] | MIC [5] [µg/mL] | MIC [6] [µg/mL] | MIC [7] [µg/mL] | melting point [°C] | IC50 [8] [µg/mL] | IC50 [9] [µg/mL] | IC50 [10] [µg/mL] | zone of inhibition at 5000 µg/mL [11] [mm] | zone of inhibition at 5000 µg/mL [12] [mm] | zone of inhibition at 5000 µg/mL [13] [mm] | zone of inhibition at 5000 µg/mL [14] [mm] | zone of inhibition at 5000 µg/mL [15] [mm] | zone of inhibition at 5000 µg/mL [16] [mm] | zone of inhibition at 5000 µg/mL [17] [mm]
1 | N#CC1=C(N)Oc2cc(O)c(N=Nc3ccc(C(=O)O)cc3)cc2C1c1ccccc1F (stereo not drawn) [13e, 4-[2-Amino-3-cyano-4-(2-fluoro-phenyl)-7-hydroxy-4H-chromen-6-ylazo]-benzoic acid] | 0.06 (≈ 0.139 µM) | 0.12 (≈ 0.279 µM) | 3.9 (≈ 9.06 µM) | 3.9 (≈ 9.06 µM) | 0.49 (≈ 1.14 µM) | 0.98 (≈ 2.28 µM) | 3.9 (≈ 9.06 µM) | 243 | 27.9 (≈ 64.8 µM) | 46.7 (≈ 109 µM) | 20.5 (≈ 47.6 µM) | 25.2 | 23.6 | 19.3 | 19.3 | 21.8 | 21.3 | 19.3
2 | CC(C)(C)c1ccc(C2C(C#N)=C(N)Oc3cc(O)c(N=Nc4ccc(O)cc4)cc32)cc1 (stereo not drawn) [13i, 2-Amino-4-(4-tert-butyl-phenyl)-7-hydroxy-6-(4-hydroxy-phenylazo)-4H-chromene-3-carbonitrile] | 0.12 (≈ 0.272 µM) | 0.24 (≈ 0.545 µM) | 3.9 (≈ 8.85 µM) | 15.6 (≈ 35.5 µM) | 0.98 (≈ 2.22 µM) | 3.9 (≈ 8.85 µM) | 15.6 (≈ 35.5 µM) | 255 | 47 (≈ 107 µM) | 75.7 (≈ 172 µM) | 31.6 (≈ 71.7 µM) | 22.4 | 21.3 | 17.2 | 19.2 | 20.3 | 17.3 | 16.2
3 | N#CC1=C(N)Oc2cc(O)c(N=Nc3ccc(O)cc3)cc2C1c1ccccc1F (stereo not drawn) [13j, 2-Amino-4-(2-fluoro-phenyl)-7-hydroxy-6-(4-hydroxy-phenylazo)-4H-chromene-3-carbonitrile] | 0.49 (≈ 1.22 µM) | 0.98 (≈ 2.44 µM) | 3.9 (≈ 9.69 µM) | 3.9 (≈ 9.69 µM) | 0.98 (≈ 2.44 µM) | 0.98 (≈ 2.44 µM) | 31.2 (≈ 77.7 µM) | 260 | 44 (≈ 109 µM) | 49.1 (≈ 122 µM) | 47.2 (≈ 117 µM) | 21.9 | 21 | 19.8 | 18.7 | 21.2 | 20.6 | 16.3
